Numbers after ± are expanded uncertainties.
Experiment: mn = molality of the nth substance listed, in mol/kg
Details: 101 kPa, Liquid; for apparent molar heat capacity: Flow calorimetry

Nc1ncnc2c1ncn2[C@@H]1O[C@H](CO)[C@@H](O)[C@H]1O [β-adenosine] + O
mass density (288.15 K, m1 = 0.01329): 1000.4 ± 0.14 kg/m3
mass density (288.15 K, m1 = 0.01395): 1000.47 ± 0.14 kg/m3
mass density (288.15 K, m1 = 0.01492): 1000.56 ± 0.14 kg/m3
mass density (288.15 K, m1 = 0.01614): 1000.68 ± 0.14 kg/m3
mass density (288.15 K, m1 = 0.01712): 1000.77 ± 0.14 kg/m3
mass density (288.15 K, m1 = 0.01799): 1000.86 ± 0.14 kg/m3
mass density (288.15 K, m1 = 0.01882): 1000.94 ± 0.14 kg/m3
mass density (288.15 K, m1 = 0.01892): 1000.95 ± 0.14 kg/m3
mass density (288.15 K, m1 = 0.01942): 1001 ± 0.14 kg/m3
apparent molar heat capacity (298.15 K, m1 = 0.01599): 483.2 ± 49 J/K/mol
apparent molar heat capacity (298.15 K, m1 = 0.01704): 488 ± 46 J/K/mol
apparent molar heat capacity (298.15 K, m1 = 0.01799): 487.4 ± 44 J/K/mol
apparent molar heat capacity (298.15 K, m1 = 0.01899): 491.7 ± 42 J/K/mol
apparent molar heat capacity (298.15 K, m1 = 0.01941): 486.7 ± 41 J/K/mol
apparent molar heat capacity (298.15 K, m1 = 0.01999): 489.8 ± 40 J/K/mol
apparent molar heat capacity (298.15 K, m1 = 0.02098): 488.4 ± 38 J/K/mol
apparent molar heat capacity (298.15 K, m1 = 0.02171): 489.9 ± 36 J/K/mol
apparent molar heat capacity (298.15 K, m1 = 0.02196): 487.5 ± 36 J/K/mol
mass density (298.15 K, m1 = 0.01501): 998.486 ± 0.14 kg/m3
mass density (298.15 K, m1 = 0.01599): 998.58 ± 0.14 kg/m3
mass density (298.15 K, m1 = 0.01704): 998.686 ± 0.14 kg/m3
mass density (298.15 K, m1 = 0.01799): 998.767 ± 0.14 kg/m3
mass density (298.15 K, m1 = 0.01899): 998.864 ± 0.14 kg/m3
mass density (298.15 K, m1 = 0.01941): 998.902 ± 0.14 kg/m3
mass density (298.15 K, m1 = 0.01999): 998.965 ± 0.14 kg/m3
mass density (298.15 K, m1 = 0.02098): 999.055 ± 0.14 kg/m3
mass density (298.15 K, m1 = 0.02171): 999.129 ± 0.14 kg/m3
mass density (298.15 K, m1 = 0.02196): 999.151 ± 0.14 kg/m3
mass density (303.15 K, m1 = 0.01329): 996.913 ± 0.14 kg/m3
mass density (303.15 K, m1 = 0.01395): 996.975 ± 0.14 kg/m3
mass density (303.15 K, m1 = 0.01501): 997.076 ± 0.14 kg/m3
mass density (303.15 K, m1 = 0.01546): 997.117 ± 0.14 kg/m3
mass density (303.15 K, m1 = 0.01614): 997.185 ± 0.14 kg/m3
mass density (303.15 K, m1 = 0.01712): 997.271 ± 0.14 kg/m3
mass density (303.15 K, m1 = 0.01799): 997.354 ± 0.14 kg/m3
mass density (303.15 K, m1 = 0.01892): 997.445 ± 0.14 kg/m3
mass density (303.15 K, m1 = 0.01903): 997.455 ± 0.14 kg/m3
mass density (303.15 K, m1 = 0.01942): 997.495 ± 0.14 kg/m3
mass density (313.15 K, m1 = 0.01297): 993.43 ± 0.15 kg/m3
mass density (313.15 K, m1 = 0.01346): 993.47 ± 0.15 kg/m3
mass density (313.15 K, m1 = 0.01395): 993.522 ± 0.15 kg/m3
mass density (313.15 K, m1 = 0.01501): 993.616 ± 0.15 kg/m3
mass density (313.15 K, m1 = 0.01598): 993.707 ± 0.15 kg/m3
mass density (313.15 K, m1 = 0.017): 993.802 ± 0.15 kg/m3
mass density (313.15 K, m1 = 0.01799): 993.896 ± 0.15 kg/m3
mass density (313.15 K, m1 = 0.01882): 993.976 ± 0.15 kg/m3
mass density (313.15 K, m1 = 0.01997): 994.077 ± 0.15 kg/m3
